pIC50: −log10 of the molar value. Read-outs that look alike come from different tables or passages of the source.
Tests used:
[1] = target: T1, human glucagon receptor (Homo sapiens, UniProt P47871); assay: Glucagon Binding Assay (II)
T1 construct: expressed in transfected cells; host or cells: BHK (baby hamster kidney) cells, membrane preparation
Procedure, shortened: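 Membranes from BHK cells transfected with the human glucagon receptor were incubated with test compound (in DMSO) in HEPES buffer pH 7.5 with Ca2+/Mg2+ and WGA beads for 4 h, then settled 8–48 h before scintillation counting. Non-specific binding was defined with 500 nM glucagon.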

[2] = target: T2, human GIP receptor (Homo sapiens, UniProt P48546); assay: GIP Binding Assay; settings: membranes of BHK cells transfected with human GIP receptor, 125I-GIP, SPA; read-out: GIP Bd Assay IC50
T2 construct: expressed in transfected cells; host or cells: BHK (baby hamster kidney) cells, membrane preparation
T2 sequence (P48546 22-466): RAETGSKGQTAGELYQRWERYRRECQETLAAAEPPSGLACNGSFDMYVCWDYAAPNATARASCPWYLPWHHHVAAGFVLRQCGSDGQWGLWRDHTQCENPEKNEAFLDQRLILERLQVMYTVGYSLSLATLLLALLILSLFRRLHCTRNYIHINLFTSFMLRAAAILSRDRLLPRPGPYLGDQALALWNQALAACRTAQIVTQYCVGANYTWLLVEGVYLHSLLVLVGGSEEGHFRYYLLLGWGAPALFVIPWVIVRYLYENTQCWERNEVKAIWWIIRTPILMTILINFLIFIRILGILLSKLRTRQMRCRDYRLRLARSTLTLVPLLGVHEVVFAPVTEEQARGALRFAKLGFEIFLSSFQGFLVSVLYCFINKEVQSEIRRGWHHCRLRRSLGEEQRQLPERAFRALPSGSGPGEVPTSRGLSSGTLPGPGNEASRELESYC
Procedure, shortened: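 Membranes from BHK cells transfected with human GIP receptor; competition binding in HEPES pH 7.5 buffer with Ca2+/Mg2+, compounds added in DMSO, WGA SPA beads. Incubated 3.5 h shaking, settled 8-48 h, then scintillation counted; non-specific binding defined with 500 nM GIP.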

[3] = membranes of BHK cells transfected with human glucagon receptor, 125I-glucagon, SPA, read-out: Glu Bd Assay (II) IC50

T1 sequence (P47871 26-477): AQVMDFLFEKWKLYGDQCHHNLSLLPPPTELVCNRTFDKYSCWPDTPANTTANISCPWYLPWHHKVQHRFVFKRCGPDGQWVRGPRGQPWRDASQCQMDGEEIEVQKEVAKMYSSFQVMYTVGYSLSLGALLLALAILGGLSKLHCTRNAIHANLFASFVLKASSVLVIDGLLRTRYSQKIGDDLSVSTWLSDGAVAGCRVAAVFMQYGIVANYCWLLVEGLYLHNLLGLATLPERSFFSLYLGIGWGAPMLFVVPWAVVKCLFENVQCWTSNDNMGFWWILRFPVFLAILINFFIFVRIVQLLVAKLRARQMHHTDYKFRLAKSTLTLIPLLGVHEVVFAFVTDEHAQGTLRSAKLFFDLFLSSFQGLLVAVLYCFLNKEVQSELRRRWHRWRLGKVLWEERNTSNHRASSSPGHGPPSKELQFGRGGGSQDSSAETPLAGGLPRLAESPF

Compound	pIC50 [1, 3]	melting point [°C]	pIC50 [2]	pIC50 [1]
CC(C)(C)[C@H]1CC[C@H](N(Cc2ccc(C(=O)NC[C@H](O)C(=O)O)cc2)C(=O)Nc2cc(C(F)(F)F)cc(C(F)(F)F)c2)CC1 [Example 13, (S)-Trans-3-{4-[3-(3,5-Bis(trifluoromethyl)phenyl)-1-(4-tert-butylcyclohexyl)ureidomethyl]benzoylamino}-2-hydroxypropionic acid]	6.64	185 to 187	6.15	
CC(C)(C)[C@H]1CC[C@H](N(Cc2ccc(C(=O)NC[C@@H](O)C(=O)O)cc2)C(=O)Nc2cc(C(F)(F)F)cc(C(F)(F)F)c2)CC1 [Example 14, (R)-Trans-3-{4-[3-(3,5-bis(trifluoromethyl)phenyl)-1-(4-tert-butylcyclohexyl)ureidomethyl]benzoylamino}-2-hydroxypropionic acid]	7.72	184 to 187	6.56	
CC(C)(C)C1CC=C(c2ccc(N(Cc3ccc(C(=O)NC[C@@H](O)C(=O)O)cc3)C(=O)Nc3cc(Cl)cc(Cl)c3)cc2)CC1 (stereo partly drawn) [Example 33, 3-{4-[1-[4-(4-tert-Butylcyclohex-1-enyl)phenyl]-3-(3,5-dichlorophenyl)ureidomethyl]benzoyl-amino}-2-(R)-hydroxypropionic Acid]	7.92	151 to 155	6.72	
CC(=O)c1ccc(NC(=O)N(Cc2ccc(C(=O)NC[C@@H](O)C(=O)O)cc2)c2ccc(C3CCCCC3)cc2)cc1 [Example 53, (R)-3-{4-[3-(4-Acetylphenyl)-1-(4-cyclohexylphenyl)ureidomethyl]benzoylamino}-2-hydroxypropionic acid]	6.41		< 5.52	
O=C(NC[C@@H](O)C(=O)O)c1ccc(CN(C(=O)Nc2cc(F)cc(F)c2)c2ccc(C3CCCCC3)cc2)cc1 [Example 55, (R)-3-{4-[1-(4-Cyclohexylphenyl)-3-(3,5-difluorophenyl)ureidomethyl]benzoylamino}-2-hydroxypropionic acid]	7.30		6.37	
CC(C)(C)C1CCC(N(Cc2ccc(C(=O)NC[C@@H](O)C(=O)O)cc2)C(=O)Cc2ccc(OC(F)(F)F)cc2)CC1 (stereo partly drawn) [Example 56, (R)-3-[4-({(4-tert-Butylcyclohexyl)-[2-(4-trifluoromethoxyphenyl)acetyl]amino}methyl)benzoylamino]-2-hydroxypropionic acid]	6.64		5.86	
CC(C)(C)C1CCC(N(Cc2ccc(C(=O)NC[C@@H](O)C(=O)O)cc2)C(=O)Cc2cc(F)cc(C(F)(F)F)c2)CC1 (stereo partly drawn) [Example 57, (R)-3-[4-({(4-tert-Butylcyclohexyl)-[2-(3-fluoro-5-trifluoromethylphenyl)acetyl]amino}methyl)benzoylamino]-2-hydroxypropionic acid]	6.36		< 5.52	
O=C(NC[C@@H](O)C(=O)O)c1ccc(CN(CC(c2ccccc2)c2ccccc2)C(=O)Cc2cc(F)cc(C(F)(F)F)c2)cc1 [Example 58, (R)-3-[4-({(2,2-Diphenylethyl)-[2-(3-fluoro-5-trifluoromethylphenyl)acetyl]amino}methyl)benzoylamino]-2-hydroxypropionic acid]	6.02		< 5.52	
O=C(NC[C@@H](O)C(=O)O)c1ccc(CN(CC(c2ccccc2)c2ccccc2)C(=O)c2csc3ccc(Cl)cc23)cc1 [Example 59, (R)-3-(4-{[(5-Chlorobenzo[b]thiophene-3-carbonyl)-(2,2-diphenylethyl)amino]methyl}benzoylamino)-2-hydroxypropionic acid]	6.23		< 5.52	
O=C(NC[C@@H](O)C(=O)O)c1ccc(CN(CC(c2ccccc2)c2ccccc2)C(=O)Cc2ccc(OC(F)(F)F)cc2)cc1 [Example 60, (R)-3-[4-({(2,2-Diphenylethyl)-[2-(4-trifluoromethoxyphenyl)acetyl]amino}methyl)benzoylamino]-2-hydroxypropionic acid]	5.99		< 5.52	
CC(C)(C)C1CCC(N(Cc2ccc(C(=O)NC[C@@H](O)C(=O)O)cc2)C(=O)c2csc3ccc(Cl)cc23)CC1 (stereo partly drawn) [Example 61, (R)-3-(4-{[(4-tert-Butylcyclohexyl)-(5-chlorobenzo[b]thiophene-3-carbonyl)amino]methyl}-benzoylamino)-2-hydroxypropionic acid]	6.12		< 5.52	
O=C(NC[C@@H](O)C(=O)O)c1ccc(CN(CC(c2ccccc2)c2ccccc2)C(=O)c2cc3cc(OC(F)(F)F)ccc3[nH]2)cc1 [Example 62, (R)-3-(4-{[(2,2-Diphenylethyl)-(5-trifluoromethoxy-1H-indole-2-carbonyl)amino]methyl}-benzoylamino)-2-hydroxypropionic acid]	6.12		< 5.52	
O=C(NC[C@@H](O)C(=O)O)c1ccc(CN(C(=O)Cc2ccc(OC(F)(F)F)cc2)c2ccc(C3CCCCC3)cc2)cc1 [Example 63, (R)-3-[4-({(4-Cyclohexylphenyl)-[(4-trifluoromethoxyphenyl)acetyl]amino}methyl)benzoylamino]-2-hydroxypropionic acid]	6.47		< 5.52	
O=C(NC[C@@H](O)C(=O)O)c1ccc(CN(C(=O)Cc2cccc(OC(F)(F)F)c2)c2ccc(C3CCCCC3)cc2)cc1 [Example 64, (R)-3-[4-({(4-Cyclohexylphenyl)-[(3-trifluoromethoxyphenyl)acetyl]amino}methyl)benzoylamino]-2-hydroxypropionic acid]	6.29		< 5.52	

Further lines, results first:

pIC50 [1, 3]	melting point [°C]	pIC50 [2]	pIC50 [1]	Compound
6.28		< 5.52		O=C(NC[C@@H](O)C(=O)O)c1ccc(CN(C(=O)Cc2cc(F)cc(C(F)(F)F)c2)c2ccc(C3CCCCC3)cc2)cc1 [Example 65, (R)-3-[4-({(4-Cyclohexylphenyl)-[(3-fluoro-5-trifluoromethylphenyl)acetyl]amino}methyl)benzoylamino]-2-hydroxypropionic acid]
6.49		< 5.52		O=C(NC[C@@H](O)C(=O)O)c1ccc(CN(C(=O)Cc2cc(C(F)(F)F)cc(C(F)(F)F)c2)c2ccc(C3CCCCC3)cc2)cc1 [Example 66, (R)-3-(4-{([(3,5-Bis(trifluoromethyl)phenyl)acetyl]-(4-cyclohexylphenyl)amino)methyl}benzoylamino)-2-hydroxypropionic acid]
6.28		< 5.52		O=C(NC[C@@H](O)C(=O)O)c1ccc(CN(C(=O)Cc2cccc(C(F)(F)F)c2)c2ccc(C3CCCCC3)cc2)cc1 [Example 67, (R)-3-[4-({(4-Cyclohexylphenyl)-[(3-trifluoromethylphenyl)acetyl]amino}methyl)benzoylamino]-2-hydroxypropionic acid]
		< 5.52	6.28	O=C(NC[C@@H](O)C(=O)O)c1ccc(CN(C(=O)Cc2ccc(Cl)c(Cl)c2)c2ccc(C3CCCCC3)cc2)cc1 [Example 68, (R)-3-[4-({(4-Cyclohexylphenyl)-[(3,4-dichlorophenyl)acetyl]amino}methyl)benzoylamino]-2-hydroxypropionic acid]
6.37		< 5.52		O=C(NC[C@@H](O)C(=O)O)c1ccc(CN(C(=O)Cc2cccc(Br)c2)c2ccc(C3CCCCC3)cc2)cc1 [Example 69, (R)-3-(4-{[[(3-Bromophenyl)acetyl]-(4-cyclohexylphenyl)amino]methyl}benzoylamino)-2-hydroxypropionic acid]
6.13		< 5.52		O=C(NC[C@@H](O)C(=O)O)c1ccc(CN(C(=O)Cc2ccc(-c3ccccc3)cc2)c2ccc(C3CCCCC3)cc2)cc1 [Example 70, (R)-3-(4-{[(Biphenyl-4-ylacetyl)-(4-cyclohexylphenyl)amino]methyl}benzoylamino)-2-hydroxypropionic acid]
6.05		< 5.52		O=C(NC[C@@H](O)C(=O)O)c1ccc(CN(C(=O)Cc2ccc3ccccc3c2)c2ccc(C3CCCCC3)cc2)cc1 [Example 71, (R)-3-(4-{[(4-Cyclohexylphenyl)-(2-naphthylacetyl)amino]methyl}benzoylamino)-2-hydroxypropionic acid]
6.27		< 5.52		O=C(NC[C@@H](O)C(=O)O)c1ccc(CN(C(=O)CCc2cc(C(F)(F)F)cc(C(F)(F)F)c2)c2ccc(C3CCCCC3)cc2)cc1 [Example 72, (R)-3-(4-{[(3-(3,5-Bis(trifluoromethyl)phenyl)propionyl)-(4-cyclohexylphenyl)amino]methyl}benzoylamino)-2-hydroxypropionic acid]
6.17		< 5.52		O=C(NC[C@@H](O)C(=O)O)c1ccc(CN(C(=O)CCc2cccc([N+](=O)[O-])c2)c2ccc(C3CCCCC3)cc2)cc1 [Example 73, (R)-3-[4-({(4-Cyclohexylphenyl)-[3-(3-nitrophenyl)propionyl]amino}methyl)benzoylamino]-2-hydroxypropionic acid]

Source: patent publication US6953812B2, “Glucagon antagonists/inverse agonists” (Novo Nordisk, Inc., priority 2000, dated 2005)
